Experimental data published in ChEMBL document CHEMBL5143508, “Design, synthesis and biological evaluation of novel o-aminobenzamide derivatives as potential anti-gastric cancer agents in vitro and in vivo” (Eur J Med Chem, 2022).
Where “and” joins values, the source holds several entries; their conditions need not be identical. Equal entries are not always repeated. Calls of active or inactive are those of the source. No cut-off for these calls is given here.

Tests used:
MGC-803 [1] = experiment: Induction of cell cycle arrest in human MGC-803 cells assessed as reduction in accumulation of cells at G0/G1 phase at 2.5 to 10 uM incubated for 24 hrs by PI staining based flow cytometry analysis; assay type: functional; settings: dose 2.5-10 µM
HGC-27 [2] = experiment: Induction of apoptosis in human HGC-27 cells assessed as upregulation in cleaved caspase-3 expression at 0.5 to 8 uM incubated for 48 hrs by Western blot analysis; assay type: functional, cell-based; settings: dose 0.5-8 µM
BGC-823 = experiment: cells; assay type: functional, cell-based; settings: Homo sapiens, BGC-823, 72 h
Description: Cytotoxicity against human BGC-823 cells assessed as inhibition of cell growth incubated for 72 hrs by MTT assay

HGC-27 [3] = experiment: Induction of apoptosis in human HGC-27 cells assessed as viable cells at 0.1 uM incubated for 48 hrs by annexin V FITC/propidium iodide staining based flow cytometry (reference value: 93.0 %); assay type: functional; settings: read-out: Activity
HGC-27 [4] = experiment: Induction of apoptosis in human HGC-27 cells assessed as early apoptotic cells at 0.1 uM incubated for 48 hrs by annexin V FITC/propidium iodide staining based flow cytometry (reference value: 0.66 %); assay type: functional
HGC-27 [5] = experiment: Induction of apoptosis in human HGC-27 cells assessed as necrotic cells at 0.1 uM incubated for 48 hrs by annexin V FITC/propidium iodide staining based flow cytometry (reference value: 1.24 %); assay type: functional
MGC-803 [6] = experiment: Induction of apoptosis in human MGC-803 cells assessed as late apoptotic cells at 20 uM incubated for 48 hrs by annexin V FITC/propidium iodide staining based flow cytometry (reference value: 4.07 %); assay type: functional
[7] = Acute toxicity in Kunming mouse assessed as effect on heart pathology at 1000 mg/kg, po measured after 14 days; assay type: organism-based; settings: in vivo, 336 h, time 14 day
[8] = Acute toxicity in Kunming mouse assessed as effect on liver pathology at 1000 mg/kg, po measured after 14 days; assay type: organism-based; settings: in vivo, 336 h, time 14 day
HGC-27 [9] = experiment: Antitumor activity against human HGC-27 cells xenografted in BALB/c mouse assessed as tumor growth inhibition at 75 mg/kg, po bid administered for 19 days; assay type: functional; settings: HGC-27, 456 h, time 19 day, read-out: TGI
[10] = Toxicity in BALB/c mouse xenografted with human HGC-27 cells assessed as mean corpuscular volume at 150 mg/kg, po bid for 19 days; assay type: organism-based; settings: in vivo, 456 h, time 19 day
[11] = Toxicity in BALB/c mouse xenografted with human HGC-27 cells assessed as red blood cell distribution width at 150 mg/kg, po bid for 19 days; assay type: organism-based; settings: in vivo, 456 h, time 19 day
[12] = Toxicity in BALB/c mouse xenografted with human HGC-27 cells assessed as platelet distribution width at 150 mg/kg, po bid for 19 days; assay type: organism-based; settings: in vivo, 456 h, time 19 day
[13] = Toxicity in BALB/c mouse xenografted with human HGC-27 cells assessed as monocyte level at 75 mg/kg, po bid for 19 days; assay type: organism-based; settings: in vivo, 456 h, time 19 day
[14] = Toxicity in BALB/c mouse xenografted with human HGC-27 cells assessed as RBC level at 75 mg/kg, po bid for 19 days; assay type: organism-based, Erythrocyte; settings: in vivo, 456 h, time 19 day
[15] = Toxicity in BALB/c mouse xenografted with human HGC-27 cells assessed as mean corpuscular volume at 75 mg/kg, po bid for 19 days; assay type: organism-based; settings: in vivo, 456 h, time 19 day
[16] = Toxicity in BALB/c mouse xenografted with human HGC-27 cells assessed as platelet level at 75 mg/kg, po bid for 19 days; assay type: organism-based; settings: in vivo, 456 h, time 19 day
[17] = Toxicity in BALB/c mouse xenografted with human HGC-27 cells assessed as mean platelet volume at 75 mg/kg, po bid for 19 days; assay type: organism-based; settings: in vivo, 456 h, time 19 day
HGC-27 [18] = experiment: In vivo induction of cell cycle arrest in human HGC-27 cells xenografted in BALB/c mouse assessed as decrease in CDK2 expression at 75 to 150 mg/kg, po bid administered for 19 days and measured by immunohistochemical analysis; assay type: functional, organism-based; settings: dose 75-150 mg/kg, time 19.0 day
in vitro = settings: human, GES1 cells
Description: Cytotoxicity against human GES1 cells assessed as inhibition of cell growth incubated for 72 hrs by MTT assay

**Q.** What does the source list for O=C(NCc1ccc(NC(=O)c2ccccc2N2CCCC2)cc1)OCc1cccnc1?
**A.** Activity (MGC-803 [1]): Active; Activity (HGC-27 [2]): Active

**Q.** Which IC50 (BGC-823) does the source give for O=C(NCc1ccc(NC(=O)c2cc(F)ccc2N2CCCC2)cc1)OCc1cccnc1 here?
**A.** 14.8 µM

**Q.** And the viability at 0.1 µM (HGC-27 [3])?
**A.** 83.5%

**Q.** What about the Activity (HGC-27 [4]) of the same molecule?
**A.** 1.43%

**Q.** What about the Activity (HGC-27 [5]) of the same molecule?
**A.** 0.86%

**Q.** And the Activity (MGC-803 [6])?
**A.** 19.8%

**Q.** What about the Activity [7] of the same molecule?
**A.** Non-Toxic

**Q.** And the Activity [8]?
**A.** Non-Toxic

**Q.** And the inhibition in vivo at 75 mg/kg (HGC-27 [9])?
**A.** 52.4%

**Q.** What about the Activity [10] of the same molecule?
**A.** 49.83 fL

**Q.** What about the Activity [11] of the same molecule?
**A.** 15.33%

**Q.** What about the Activity [12] of the same molecule?
**A.** 17.45

**Q.** What about the Activity [13] of the same molecule?
**A.** 1.57 10^9/L and 2.03%

**Q.** And the Activity [14]?
**A.** 11.74 10^12/L

**Q.** What about the Activity [15] of the same molecule?
**A.** 49.83 fL

**Q.** What about the Activity [16] of the same molecule?
**A.** 1057.33 10^9/L

**Q.** What about the Activity [17] of the same molecule?
**A.** 5.6 fL

**Q.** What about the Activity (HGC-27 [18]) of the same molecule?
**A.** Active

**Q.** And the IC50 at 72 h (in vitro)?
**A.** 90.2 µM
